{"source": "patent US9198909B1", "about": "“Materials and methods for inhibiting mamalian S-nitrosoglutathione reductase” (Indiana University Research and Technology Corporation, priority 2007, dated 2015)", "key": {"[1]": {"system": "RAW 264.7 cells", "test": "cGMP accumulation in RAW 264.7 cells", "assay_type": "cell-based, rat", "settings": "50 μM GSNO, 10 minutes", "experimental": "cGMP plays key roles in vascular biology. To test whether inhibition of GSNOR increases cGMP production, RAW 264.7 cells were incubated with 50 μM GSNO±, both with and without compound 8, one of the subject GSNOR inhibitors of this invention. Next the amount of cGMP accumulation after 10 minutes was measured. Referring now to FIG. 6, GSNO activates soluble Guanylate Cyclase as previously described (Mayer et al J Biol Chem, Vol. 273, Issue 6, 3264-3270, Feb. 6, 1998). Compound 8 (GSNORi in the figure) potentiates the effect of GSNO by 2.5 fold.\nReferring now to FIG. 6, RAW 264.7 cells were incubated with 50 μM GSNO±compound 8 the subject GSNOR inhibitor of this invention and then measured the amount of cGMP accumulation after 10 minutes. As shown in the figure GSNO activates soluble Guanylate Cyclase as previously described (Mayer et al J Biol Chem, Vol. 273, Issue 6, 3264-3270, Feb. 6, 1998). One mechanism by which compound 8 exerts its biochemical effects is due to its inhibition of GSNOR, which then potentiates the effects of GSNO on cGMP production resulting in higher cGMP levels."}, "[2]": {"target": "T1, GSNOR (Homo sapiens, UniProt P11766)", "T1 sequence (P11766 2-374 limits assumed)": "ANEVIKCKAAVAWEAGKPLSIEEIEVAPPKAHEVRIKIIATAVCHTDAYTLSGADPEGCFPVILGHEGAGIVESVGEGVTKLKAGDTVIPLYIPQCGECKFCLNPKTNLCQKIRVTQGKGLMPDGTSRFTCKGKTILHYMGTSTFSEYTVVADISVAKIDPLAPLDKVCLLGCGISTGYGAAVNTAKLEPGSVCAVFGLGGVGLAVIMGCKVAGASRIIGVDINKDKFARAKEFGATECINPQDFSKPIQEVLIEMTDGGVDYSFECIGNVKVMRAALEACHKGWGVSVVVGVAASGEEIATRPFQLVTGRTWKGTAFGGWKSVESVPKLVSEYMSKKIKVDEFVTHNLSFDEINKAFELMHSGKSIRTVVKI", "test": "Dead-end inhibition studies of GSNOR", "assay_type": "biochemical", "design": "made in house; host or cells: E. coli", "settings": "pH 7.5, 25° C., GSNO held at 10 μM", "experimental": "Referring now to Table 3, inhibition experiments were performed at 25° C. in 50 mM potassium phosphate (pH 7.5) including 0.1 mM EDTA. A minimum of five concentrations of the varied substrate and three inhibitor concentrations were used for each experiment. NADH and GSNO concentrations were held at 15 or 10 μM, respectively when present as a constant substrate in the assay. The Kis and Kii values are respectively the slope and intercept inhibition constants and are listed along with their associated standard errors. All data were fit to a competitive (C), noncompetitive (NC), or uncompetitive (UC) inhibition models. The type of inhibition shown in the table represents the best fit of the data to the given model as judged from F statistics analysis. […] The dissociation constant was measured at 25° C. in 50 mM potassium phosphate pH 7.5. Each KD value is an average of three independent experiments and is shown with the associated standard error.\nInhibition experiments with the GSNOR inhibitors were conducted at 25° C. in 3 ml of 50 mM potassium phosphate (pH 7.5) containing 0.1 mM EDTA. […] A minimum of three inhibitor concentrations were used in these assays and the rate of NADH and GSNO consumption was determined spectrophotometrically by following change in absorbance at 340 nm. […]"}, "[3]": {"system": "RAW 264.7 cells", "test": "Nitroso species accumulation in RAW 264.7 cells (triiodide chemiluminescence)", "assay_type": "cell-based, rat", "experimental": "Referring now to FIG. 3, briefly, RAW 264.7 cells were incubated with 500 μM GSNO alone (γ) or in presence of 33 μM Compound 6 (◯) or 7 (Δ) or 8 (▪). At indicated times or at 4 hr (in case of B), the cells were lysed and the lysate was analyzed for protein and nitroso species concentration by Bradford and chemiluminescence assay, respectively. For details, see Materials and methods. Data represents mean±SE (n=3−12).\nRAW 264.7 cells were cultured in DMEM medium supplemented with 10% FBS, 200 U/ml of penicillin and 200 μg/mL of streptomycin. The cells were incubated at 37° C. in an atmosphere containing 5% CO2 and 95% air. For the experiments, 1-2×10^6 cells were plated in six-well plates a day before the experiment. On the day of the assay the medium was replaced with 3 ml of fresh medium and the cells were treated with compounds for a predetermined length of time. Following the incubation period, the cells were washed three times with PBS and scraped off the plate in 250 μl of lysis buffer (50 mM potassium phosphate pH 7.0 containing 50 mM NEM and 1 mM EDTA). Cells were lysed by sonication using a micro tip probe (three pulses of 30% duty cycle; 2 output control on a Fisher Sonicator). Cell debris was pelleted by centrifugation (10 min at 16,000 g) and the cell lysate was analyzed for protein concentration using the Bio-Rad dye-binding protein assay. The concentration of nitroso compounds in the cell lysate was determined using the triiodide based chemiluminescence method using a Sievers 280 nitric oxide analyzer. Briefly, cell lysates were treated with 15% v/v of a sulfanilamide solution (5% w/v in 0.2 M HCl) and kept at room temperature for 5 min to remove nitrite. The triodide mixture was prepared fresh every day as described earlier and kept at 60° C. in the reaction vessel. The concentration of nitroso species was derived from a standard curve generated using GSNO. For determining the amount of the small size nitroso compounds in the cell lysate, a 5 kDa-cutoff Amicon ultra filtration unit was used according to the supplier's instructions. The amount of s-nitrosothiols in the cell lysate was determined by treating initially passing the cell lysate through a microspin column and treating the eluate with 5 mM HgCl2 before determining the nitroso compound concentration using chemiluminescence. For some experiments the cells were pretreated with the compounds for 16 hours prior to the day of experiment."}, "[4]": {"target": "T1, GSNOR", "test": "GSNOR inhibition at pH 10 (octanol, NAD+)", "assay_type": "biochemical", "design": "made in house; host or cells: E. coli", "settings": "pH 10 versus pH 7.5", "experimental": "Referring now to Table 1, inhibition was studied at pH 10. These assays were performed in 0.1 M sodium glycine containing 1 mM octanol, 1 mM NAD^+, 0.1 mM EDTA and 50 μM inhibitor. Inhibition studies at pH 7.5 were performed in 50 mM potassium phosphate pH 7.5 that included 15 μM NADH, 10 μM GSNO, 0.1 mM EDTA and 50 μM inhibitor. The data file to a model consisted with partial inhibition and a hill coefficient of 2.4 in the inhibition curve. The screening for GSNOR inhibitors was performed using a library of 60,000 compounds from ChemDiv Inc in the Chemical Genomics Core facility at Indiana University. Screening was conducted in 384 well plates and involved incubating GSNOR with 12.5 μM compound, 1 mM each of NAD^+ and octanol in 0.1 M sodium glycine pH 10. Enzyme activity was determined by measuring the rate of production of NADH spectrophotometrically at 340 nm. Inhibition of GSNOR was calculated from the ratio of enzyme activity in the presence of compounds to that in no compound controls performed on the same assay plate. Following their identification from the high-throughput screening, the GSNOR inhibitory properties of the initial hits were confirmed at the pH 10 using 12-hydroxydodecanoic acid as the substrate and at pH 7.5 using GSNO as the substrate (see the brief description of Table 1 for details on how the assay was carried out.)"}}}
{"smiles": "N#Cc1ccccc1CSc1nc2ccsc2c(=O)n1Cc1ccc(C(=O)O)cc1", "note": "[Compound 8]", "values": [{"measurement": "potentiation of the effect of GSNO on cGMP", "setting": "[1]", "result": 2.5, "unit": "fold"}, {"measurement": "type of inhibition against varied NADH", "setting": "[2]", "result": "uncompetitive"}, {"measurement": "nitrosylation, fold higher than Compound 7", "setting": "[3]; 33 μM initial concentration, 500 μM GSNO, 4 hr", "result": 3, "unit": "fold"}, {"measurement": "decrease in nitrosylated species relative to amounts at 4 hours", "setting": "[3]; exposure up to 24 hours, data not shown", "result": 80, "unit": "%"}, {"measurement": "GSNOR inhibition at pH 10 compared with pH 7.5", "setting": "[4]", "result": "higher GSNOR inhibition at pH 10 than at pH 7.5"}]}
